According to the supplement of paper PMC11061612:

Assays:
[1] = tested on: CAL-51 (Breast Carcinoma); assay: Bliss excess, mean over the matrix (fraction); higher = more synergy
Outline: (§1)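 Cell lines grown in DMEM/F12 or RPMI with 10% FBS were plated in 1536-well plates and held 24 hours at 37°C, 5% CO2 before 72 hours of exposure to two-drug dose matrices, with DMSO typically at 0.2%. CellTiter-Glo 2.0 luminescence gave viability, which was converted to inhibition. Vehicle wells were set to 0 and blank wells to 1. Combination Emax is the second-highest inhibition in the matrix, and Bliss excess is the observed combination effect minus the expected EA + EB − EA·EB, where EA and EB are the single-agent effects.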

COLO-829 (Melanoma) [2] = assay: as above
Outline: as §1

[3] = tested on: HCC-15 (Squamous Cell Lung Carcinoma); assay: as above
Outline: as §1

[4] = tested on: LB771-HNC (Head and Neck Carcinoma); assay: as above
Outline: as §1

[5] = tested on: NCI-H747 (Colorectal Carcinoma); assay: as above
Outline: as §1

[6] = tested on: UMC-11 (Other Solid Carcinomas); assay: as above
Outline: as §1

[7] = tested on: 639-V (Bladder Carcinoma); assay: combination Emax (second highest fraction inhibited in the dose matrix, 72 h); higher = more inhibition; extreme values may be limits of the assay
Outline: as §1

[8] = tested on: CAL-51 (Breast Carcinoma); assay: as above
Outline: as §1

COLO-829 (Melanoma) [9] = assay: as above
Outline: as §1

[10] = tested on: CTB-1 (B-Cell Non-Hodgkin's Lymphoma); assay: as above
Outline: as §1

[11] = tested on: HCC-15 (Squamous Cell Lung Carcinoma); assay: as above
Outline: as §1

[12] = tested on: KARPAS-231 (B-Cell Non-Hodgkin's Lymphoma); assay: as above
Outline: as §1

[13] = tested on: KYSE-410 (Esophageal Squamous Cell Carcinoma); assay: as above
Outline: as §1

[14] = tested on: LB771-HNC (Head and Neck Carcinoma); assay: as above
Outline: as §1

[15] = tested on: MHH-PREB-1 (B-Cell Non-Hodgkin's Lymphoma); assay: as above
Outline: as §1

[16] = tested on: NCI-H747 (Colorectal Carcinoma); assay: as above
Outline: as §1

[17] = tested on: OVCAR-8 (Ovarian Carcinoma); assay: as above
Outline: as §1

[18] = tested on: SW626 (Colorectal Carcinoma); assay: as above
Outline: as §1

[19] = tested on: TE-4 (Esophageal Squamous Cell Carcinoma); assay: as above
Outline: as §1

[20] = tested on: UMC-11 (Other Solid Carcinomas); assay: as above
Outline: as §1
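For Bliss excess, mean over the matrix in this document: after 72 h of two-drug dosing.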

SMILES: CN(CCO)CC[C@H](CSc1ccccc1)Nc1ccc(S(=O)(=O)NC(=O)c2ccc(N3CCC([C@@H](O)c4ccccc4-c4ccc(Cl)cc4)CC3)cc2)cc1S(=O)(=O)C(F)(F)F [AZD4320] + C[C@@H](Nc1cc(F)cc(F)c1)c1cc(C(=O)N(C)C)cc2c(=O)cc(N3CCOCC3)oc12 [AZD8186] (first compound max 1 µM, 7x7, partner max 3 µM)
- Bliss excess [1]: 0.0283
- Bliss excess (COLO-829 (Melanoma) [2]): 0.0015
- Bliss excess [3]: 0.0764
- Bliss excess [4]: 0.0095
- Bliss excess [5]: -0.0282
- Bliss excess [6]: -0.0356
- combination Emax [7]: 1
- combination Emax [8]: 0.443
- combination Emax (COLO-829 (Melanoma) [9]): 0.277
- combination Emax [10]: 0.669
- combination Emax [11]: 0.96
- combination Emax [12]: 1
- combination Emax [13]: 0.299
- combination Emax [14]: 0.264
- combination Emax [15]: 0.277
- combination Emax [16]: 0.511
- combination Emax [17]: 0.57
- combination Emax [18]: 0.651
- combination Emax [19]: 0.333
- combination Emax [20]: 0.375
